Measured values published in patent US10035840B2, “Targeted coagulation factors and method of using the same” (Bayer HealthCare LLC, priority 2008, dated 2018).
Positions of bridges follow the written chain, without caps; N, C: chain ends. Non-standard residues stand in square brackets, D forms with d. Residues, ends and D or L forms follow the SMILES beside them. Groups on a side chain read outwards from the residue. *: point of attachment. FITC = O=C1OC2(c3ccc(O)cc3Oc3cc(O)ccc32)c2ccc(NC(=S)*)cc21; Propanoyl(3-maleimido) = O=C1C=CC(=O)N1CCC(=O)*; hArg = N=C(N)NCCCC[C@H](N)C(=O)O; Ahx = NCCCCCC(=O)O; Mpa = O=C(O)CCS

Target: T1, GPIIb-IIIa (Homo sapiens, UniProt P05106+P08514)
T1 construct: purchased Innovative Research, Novi, Mich
Assay: Solid phase binding assay: competition of fibrinogen binding to immobilized GPIIb-IIIa
Method: Peptide binding to GPIIb-IIIa was measured using a solid phase binding assay in which competition of fibrinogen binding by testing compounds is measured. The assay was performed as follows. Purified GPIIb-IIIa (Innovative Research, Novi, Mich.) was coated onto 96-well Immulon-B plates at […]×2 μg/mL, diluted in Buffer A (20 mM Tris pH 7.5, 0.15 M NaCl, and 1 mM each of MgCl2, CaCl2, and MnCl2). After overnight incubation at 4° C., the plate was blocked for 1 hour at 30° C., with 3.5% BSA in Buffer B (50 mM Tris pH 7.5, 0.1 M NaCl, and 1 mM each of MgCl2, CaCl2, and MnCl2). After washing 3 times with Buffer B, diluted peptide or protein solutions were combined with 3.5 nM biotinylated fibrinogen in 0.1% BSA/Buffer B and added to the wells, incubating at 30° C. for 2 hr. After washing (3 times, Buffer B), 1:4000 streptavidin-horseradish peroxidase (HRP) was added (Pierce Chemical Co., Rockford, Ill.) for 1 hour at 30° C. After a final washing step (3 times, Buffer B), the plate was developed with Ultra TMB (3,3′,5,5′-tetramentylbenzidine) (Pierce Chemical Co., Rockford, Ill.) for 5 minutes, stopping with an equal volume of 2 M sulfuric acid. Plate absorbances were read at 450 nm, and IC50 values determined using a 4-parameter logistic fit.

T1 sequence (P08514 32-887 limits assumed): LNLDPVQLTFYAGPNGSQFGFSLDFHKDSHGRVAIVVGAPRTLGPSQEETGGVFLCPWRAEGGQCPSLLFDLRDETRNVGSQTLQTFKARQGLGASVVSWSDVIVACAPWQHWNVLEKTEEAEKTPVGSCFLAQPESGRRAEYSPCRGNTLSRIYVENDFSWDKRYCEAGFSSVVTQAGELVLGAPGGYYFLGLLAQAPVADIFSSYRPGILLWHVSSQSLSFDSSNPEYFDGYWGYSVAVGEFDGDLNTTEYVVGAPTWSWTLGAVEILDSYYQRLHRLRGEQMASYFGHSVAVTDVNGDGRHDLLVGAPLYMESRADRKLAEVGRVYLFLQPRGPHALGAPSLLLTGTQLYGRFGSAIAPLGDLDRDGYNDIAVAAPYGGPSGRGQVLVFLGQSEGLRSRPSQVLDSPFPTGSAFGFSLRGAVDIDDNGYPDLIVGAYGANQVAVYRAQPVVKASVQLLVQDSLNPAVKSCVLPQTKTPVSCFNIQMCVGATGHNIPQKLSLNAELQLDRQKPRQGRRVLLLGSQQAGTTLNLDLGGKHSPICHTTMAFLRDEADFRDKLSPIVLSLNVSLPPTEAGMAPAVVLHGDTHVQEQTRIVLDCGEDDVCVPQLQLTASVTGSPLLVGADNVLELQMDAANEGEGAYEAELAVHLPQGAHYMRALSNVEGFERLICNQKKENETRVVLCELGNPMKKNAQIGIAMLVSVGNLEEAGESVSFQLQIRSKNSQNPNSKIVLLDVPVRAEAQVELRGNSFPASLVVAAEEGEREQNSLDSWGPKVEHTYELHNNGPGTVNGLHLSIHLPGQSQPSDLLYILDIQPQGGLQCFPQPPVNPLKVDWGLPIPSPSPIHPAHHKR
T1 sequence (P05106 27-788): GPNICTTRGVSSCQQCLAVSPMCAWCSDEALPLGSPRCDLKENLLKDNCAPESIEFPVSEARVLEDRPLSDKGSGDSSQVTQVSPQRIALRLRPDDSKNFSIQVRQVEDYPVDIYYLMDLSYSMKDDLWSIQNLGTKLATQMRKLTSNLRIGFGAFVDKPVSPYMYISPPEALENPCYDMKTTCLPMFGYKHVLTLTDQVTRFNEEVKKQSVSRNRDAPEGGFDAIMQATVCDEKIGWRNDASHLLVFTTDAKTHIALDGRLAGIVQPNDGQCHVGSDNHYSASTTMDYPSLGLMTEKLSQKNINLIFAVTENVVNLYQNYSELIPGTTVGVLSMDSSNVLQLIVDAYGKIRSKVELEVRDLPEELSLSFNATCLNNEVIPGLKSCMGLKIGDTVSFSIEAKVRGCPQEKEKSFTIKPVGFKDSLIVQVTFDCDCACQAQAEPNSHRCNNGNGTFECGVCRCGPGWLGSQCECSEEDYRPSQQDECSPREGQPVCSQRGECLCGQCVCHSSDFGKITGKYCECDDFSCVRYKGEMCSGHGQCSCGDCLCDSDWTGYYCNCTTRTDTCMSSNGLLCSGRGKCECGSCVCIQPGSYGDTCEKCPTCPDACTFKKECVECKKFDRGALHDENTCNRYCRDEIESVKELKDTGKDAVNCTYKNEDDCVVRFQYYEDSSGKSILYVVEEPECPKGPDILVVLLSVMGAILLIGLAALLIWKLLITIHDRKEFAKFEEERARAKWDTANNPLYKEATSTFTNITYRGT

In the case of N=C(N)NCCCC[C@@H]1NC(=O)CCSSC[C@@H](C(=O)N[C@@H](CCCCNC(=O)CCCCCNC(=O)CCN2C(=O)C=CC2=O)C(=O)N[C@@H](CCCCNC(=S)Nc2ccc3c(c2)C(=O)OC32c3ccc(O)cc3Oc3cc(O)ccc32)C(N)=O)NC(=O)[C@@H]2CCCN2C(=O)[C@H](Cc2c[nH]c3ccccc23)NC(=O)[C@H](CC(=O)O)NC(=O)CNC1=O [BHRF-3] ([Mpa][hArg]GDWPCK([Ahx-Propanoyl(3-maleimido)])K(FITC)-NH2; disulfide 1-7), the “Blocking of fibrinogen binding to immobilized GPIIb-IIIa, in words” value is reported as “potently blocked”.
For N=C(N)NCCCC[C@@H]1NC(=O)CCSSC[C@@H](C(=O)N[C@@H](CCCCNC(=O)CCCCCNC(=O)CCN2C(=O)C=CC2=O)C(N)=O)NC(=O)[C@@H]2CCCN2C(=O)[C@H](Cc2c[nH]c3ccccc23)NC(=O)[C@H](CC(=O)O)NC(=O)CNC1=O [BHRF-1] ([Mpa][hArg]GDWPCK([Ahx-Propanoyl(3-maleimido)])-NH2; disulfide 1-7), the “Blocking of fibrinogen binding to immobilized GPIIb-IIIa, in words” value was “potently blocked”.
N=C(N)NCCCC[C@@H]1NC(=O)CCSSC[C@@H](C(N)=O)NC(=O)[C@@H]2CCCN2C(=O)[C@H](Cc2c[nH]c3ccccc23)NC(=O)[C@H](CC(=O)O)NC(=O)CNC1=O [Integrelin, reference compound] ([Mpa][hArg]GDWPC-NH2; disulfide 1-7) was tested, and the IC50 (3.5 nM biotinylated fibrinogen, mean +/- spread, N in separate column or in text, read-out: IC50, inhibition of fibrinogen binding to immobilized GPIIb/IIIa) was 1.3 nM.
